The supplement of paper PMC5908809

Legend:
[1] = system: normal NK cells expanded with K562-aAPC; assay: percent inhibition of viability; higher = more inhibition; settings: 72 h, IL-2 2.5 ng/mL
Method: (§1)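 Drug sensitivity and resistance testing on K562-aAPC-expanded normal NK cells: 5 concentrations (10-fold steps over a 10,000-fold range), 72 h at 37 °C, viability by CellTiter-Glo normalised to DMSO and benzethonium chloride controls; DSS from the fitted curve.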

[2] = system: DERL-7 (IL-2 2.5 ng/mL); assay: as above; settings: 72 h
[3] = system: IMC-1 (IL-2 20 ng/mL); assay: as above; settings: 72 h
[4] = system: KAI3 (IL-2 2.5 ng/mL); assay: as above; settings: 72 h
[5] = system: KHYG-1 (IL-2 2.5 ng/mL); assay: as above; settings: 72 h
[6] = system: NK-92 (IL-2 2.5 ng/mL); assay: as above; settings: 72 h
[7] = system: NK-YS (IL-2 2.5 ng/mL); assay: as above; settings: 72 h
[8] = system: NKL (IL-2 2.5 ng/mL); assay: as above; settings: 72 h
[9] = system: SNK-6 (IL-2 2.5 ng/mL); assay: as above; settings: 72 h
[10] = system: YT (IL-2 2.5 ng/mL); assay: as above; settings: 72 h
[11] = system: normal primary NK cells, pool 1 (3 donors) (IL-2 2.5 ng/mL); assay: as above; settings: 72 h
[12] = system: normal primary NK cells, pool 1 (3 donors), resting (IL-2 0 ng/mL); assay: as above; settings: 72 h
[13] = system: normal primary NK cells, pool 2 (3 donors) (IL-2 2.5 ng/mL); assay: as above; settings: 72 h
[14] = system: normal primary NK cells, pool 3 (3 donors) (IL-2 2.5 ng/mL); assay: as above; settings: 72 h
[15] = system: normal NK cells expanded with K562-aAPC; assay: drug sensitivity score (DSS) (DSS units); higher = more sensitive; extreme values may be limits of the assay; settings: 72 h; IL-2 2.5 ng/mL
Method: as §1

[16] = system: DERL-7 (IL-2 2.5 ng/mL); assay: as above; settings: 72 h
[17] = system: IMC-1 (IL-2 20 ng/mL); assay: as above; settings: 72 h
[18] = system: KAI3 (IL-2 2.5 ng/mL); assay: as above; settings: 72 h
[19] = system: KHYG-1 (IL-2 2.5 ng/mL); assay: as above; settings: 72 h
[20] = system: NK-92 (IL-2 2.5 ng/mL); assay: as above; settings: 72 h
[21] = system: NK-YS (IL-2 2.5 ng/mL); assay: as above; settings: 72 h
[22] = system: NKL (IL-2 2.5 ng/mL); assay: as above; settings: 72 h
[23] = system: SNK-6 (IL-2 2.5 ng/mL); assay: as above; settings: 72 h
[24] = system: YT (IL-2 2.5 ng/mL); assay: as above; settings: 72 h
[25] = system: normal primary NK cells, pool 1 (3 donors) (IL-2 2.5 ng/mL); assay: as above; settings: 72 h
[26] = system: normal primary NK cells, pool 1 (3 donors), resting (IL-2 0 ng/mL); assay: as above; settings: 72 h
[27] = system: normal primary NK cells, pool 2 (3 donors) (IL-2 2.5 ng/mL); assay: as above; settings: 72 h
[28] = system: normal primary NK cells, pool 3 (3 donors) (IL-2 2.5 ng/mL); assay: as above; settings: 72 h

CC(=O)OC[C@H]1O[C@@H]([S-])[C@H](OC(C)=O)[C@@H](OC(C)=O)[C@@H]1OC(C)=O.CCP(CC)CC.[Au+] [Auranofin] (max concentration tested 2500 nM)
percent inhibition of viability [%]
Settings | 0.25 nM | 2.5 nM | 25 nM | 250 nM | 2500 nM
[1] | 1.15 | -1.41 | -0.3 | 33.5 | 100
[2] | -0.63 | 7.06 | 8.16 | 44.6 | 98.2
[3] | -3.33 | -1.53 | 4.17 | 1.71 | 99.3
[4] | -6.77 | -2.1 | -2.36 | -3.59 | 71.4
[5] | 0.4 | -2.1 | 1.71 | 13.8 | 104
[6] | -2.57 | -12.2 | -2.23 | -0.04 | 98.4
[7] | -7.49 | -6.18 | -3.6 | 9.95 | 84.9
[8] | -10.3 | -9.31 | -24.6 | 52.6 | 106
[9] | 13.5 | 17.1 | 4.84 | 33.2 | 86
[10] | -4.83 | -3.66 | 0.33 | -3.85 | 101
[11] | -6.81 | -8.13 | 21.6 | 92.8 | 100
[12] | 5.52 | -6.64 | 48.2 | 92.5 | 99.7
[13] | -13.4 | -6.97 | 8.16 | 82.7 | 101
[14] | -4.42 | 1.03 | 18.4 | 81.8 | 101

Settings | drug sensitivity score
[15] | 10.2
[16] | 10.6
[17] | 5.76
[18] | 3.64
[19] | 7.93
[20] | 5.5
[21] | 6.36
[22] | 11.9
[23] | 8.77
[24] | 5.39
[25] | 19.7
[26] | 23.7
[27] | 16.3
[28] | 17.4

CO[C@H](C(=O)[C@@H](O)[C@@H](C)O)[C@@H]1Cc2cc3cc(O[C@H]4C[C@@H](O[C@@H]5C[C@@H](O)[C@H](O)[C@@H](C)O5)[C@H](O)[C@@H](C)O4)c(C)c(O)c3c(O)c2C(=O)[C@H]1O[C@H]1C[C@@H](O[C@@H]2C[C@@H](O)[C@@H](O[C@@H]3C[C@](C)(O)[C@H](O)[C@@H](C)O3)[C@@H](C)O2)[C@H](O)[C@@H](C)O1 [Plicamycin] (max concentration tested 10000 nM)
percent inhibition of viability [%]
Settings | 1 nM | 10 nM | 100 nM | 1000 nM | 10000 nM
[1] | -1.48 | 0.95 | 3.45 | 18.5 | 86.7
[2] | 0.06 | -2.61 | 86.8 | 101 | 101
[3] | -2.17 | -0.08 | -16.4 | 69.3 | 100
[4] | -19.1 | -16.3 | 61.1 | 93.9 | 106
[5] | -6.39 | 2.63 | 87.8 | 106 | 110
[6] | -10.9 | -13.5 | 17.8 | 94.4 | 108
[7] | -4.88 | 6.73 | 97.1 | 106 | 108
[8] | -8.9 | -9.19 | 97.5 | 108 | 110
[9] | 6.54 | 44 | 92.3 | 98.5 | 97.8
[10] | -0.6 | 0.99 | 99 | 109 | 110
[11] | -2.64 | -1.48 | 31 | 97.5 | 98.2
[12] | -24.1 | -3.24 | 28.7 | 88.3 | 89.5
[13] | -13 | -9.37 | 5.25 | 58.7 | 91.9
[14] | -7.87 | -12.9 | 5.62 | 56.1 | 95.4

Settings | drug sensitivity score
[15] | 7.76
[16] | 28.2
[17] | 13.4
[18] | 25.2
[19] | 28.6
[20] | 19.7
[21] | 31.2
[22] | 29.5
[23] | 34.5
[24] | 30.5
[25] | 22.1
[26] | 20.4
[27] | 12.3
[28] | 12.1
